According to ChEMBL document CHEMBL3885861, “Open TG-GATES”:

Species: Rattus norvegicus
Test: Open TG-GATES - Regimen: Single
Format: toxicity, organism-based, Sprague-Dawley
Set-up: regimen Single, gender Male, age 6 weeks
Settings: in vivo, po, 1000 mg/kg, route gavage, dose level High; for APTT / Bas / Eos / Fbg / Hb / Ht / Lym / MCH / MCHC / MCV / Mono / Neu / PT / Plat / RBC / Ret / WBC: tissue Blood; for KIDNEY_L / KIDNEY_R / KIDNEY_TOTAL: tissue Kidney; for LIVER: tissue Liver; for ALP / ALT / AST / BUN / CRE / Ca / Cl / DBIL / GLC / IP / K / LDH / Na / PL / RALB / TBIL / TC / TG / TP / gamma-GTP: tissue Plasma

COc1cc([C@@H]2c3cc4c(cc3[C@@H](O[C@@H]3O[C@@H]5CO[C@@H](C)O[C@H]5[C@H](O)[C@H]3O)[C@H]3COC(=O)[C@H]23)OCO4)cc(OC)c1O [ETOPOSIDE]
TERMINAL_BW (3 h): 199.8 g | APTT (3 h): 16.9 s | Bas (3 h): 0% | Eos (3 h): 1% | Fbg (3 h): 194.6 mg/dL | Hb (3 h): 13.4 g/dL | Ht (3 h): 39.9% | Lym (3 h): 75.2% | MCH (3 h): 22.5 pg | MCHC (3 h): 33.7% | MCV (3 h): 66.6 fL | Mono (3 h): 7.6% | Neu (3 h): 16.2% | PT (3 h): 12.1 s | Plat (3 h): 113.8 x10_4/uL | RBC (3 h): 599 x10_4/ul | Ret (3 h): 9.6% | WBC (3 h): 81.2 x10_2/uL | KIDNEY_L (3 h): 0.9 g | KIDNEY_R (3 h): 0.9 g | KIDNEY_TOTAL (3 h): 1.8 g | LIVER (3 h): 9.6 g | ALP (3 h): 906.2 IU/L | ALT (3 h): 35.8 IU/L | AST (3 h): 68 IU/L | BUN (3 h): 12.4 mg/dL | CRE (3 h): 0.4 mg/dL | Ca (3 h): 10.5 mg/dL | Cl (3 h): 104 meq/L | DBIL (3 h): 0.026 mg/dL | GLC (3 h): 186.8 mg/dL | IP (3 h): 9.8 mg/dL | K (3 h): 4.5 meq/L | LDH (3 h): 112.4 IU/L | Na (3 h): 141 meq/L | PL (3 h): 132 mg/dL | RALB (3 h): 3.3 g/dL | TBIL (3 h): 0.3 mg/dL | TC (3 h): 71.2 mg/dL | TG (3 h): 39.4 mg/dL | TP (3 h): 5.2 g/dL | gamma-GTP (3 h): 2 IU/L | TERMINAL_BW (6 h): 200.5 g | APTT (6 h): 16.7 s | Bas (6 h): 0% | Eos (6 h): 0.6% | Fbg (6 h): 194.4 mg/dL | Hb (6 h): 13.4 g/dL | Ht (6 h): 39.7% | Lym (6 h): 74.4% | MCH (6 h): 22.1 pg | MCHC (6 h): 33.8% | MCV (6 h): 65.4 fL | Mono (6 h): 10.6% | Neu (6 h): 14.6% | PT (6 h): 11.9 s | Plat (6 h): 114.8 x10_4/uL | RBC (6 h): 606.4 x10_4/ul | Ret (6 h): 11.1% | WBC (6 h): 76.4 x10_2/uL | KIDNEY_L (6 h): 0.9 g | KIDNEY_R (6 h): 0.9 g | KIDNEY_TOTAL (6 h): 1.8 g | LIVER (6 h): 8.9 g | ALP (6 h): 782.6 IU/L | ALT (6 h): 31.6 IU/L | AST (6 h): 65.8 IU/L | BUN (6 h): 11 mg/dL | CRE (6 h): 0.6 mg/dL | Ca (6 h): 10.4 mg/dL | Cl (6 h): 104 meq/L | DBIL (6 h): 0.006 mg/dL | GLC (6 h): 193.6 mg/dL | IP (6 h): 10.5 mg/dL | K (6 h): 4.8 meq/L | LDH (6 h): 105.4 IU/L | Na (6 h): 140 meq/L | PL (6 h): 140.2 mg/dL | RALB (6 h): 3.3 g/dL | TBIL (6 h): 0.3 mg/dL | TC (6 h): 82.8 mg/dL | TG (6 h): 39 mg/dL | TP (6 h): 5.2 g/dL | gamma-GTP (6 h): 1 IU/L | TERMINAL_BW (9 h): 193.9 g | APTT (9 h): 17.2 s | Bas (9 h): 0% | Eos (9 h): 0.6% | Fbg (9 h): 201 mg/dL | Hb (9 h): 13.8 g/dL | Ht (9 h): 41.4% | Lym (9 h): 86.4% | MCH (9 h): 21.9 pg | MCHC (9 h): 33.4% | MCV (9 h): 65.7 fL | Mono (9 h): 3.8% | Neu (9 h): 9.2% | PT (9 h): 11.3 s | Plat (9 h): 117 x10_4/uL | RBC (9 h): 630.4 x10_4/ul | Ret (9 h): 8.4% | WBC (9 h): 65.4 x10_2/uL | KIDNEY_L (9 h): 0.9 g | KIDNEY_R (9 h): 0.9 g | KIDNEY_TOTAL (9 h): 1.8 g | LIVER (9 h): 8.3 g | ALP (9 h): 794 IU/L | ALT (9 h): 29.4 IU/L | AST (9 h): 63.4 IU/L | BUN (9 h): 13.2 mg/dL | CRE (9 h): 0.5 mg/dL | Ca (9 h): 10.6 mg/dL | Cl (9 h): 105.4 meq/L | DBIL (9 h): 0.022 mg/dL | GLC (9 h): 212.6 mg/dL | IP (9 h): 10.1 mg/dL | K (9 h): 4.7 meq/L | LDH (9 h): 81.4 IU/L | Na (9 h): 142.2 meq/L | PL (9 h): 124.6 mg/dL | RALB (9 h): 3.5 g/dL | TBIL (9 h): 0.4 mg/dL | TC (9 h): 67.6 mg/dL | TG (9 h): 26.4 mg/dL | TP (9 h): 5.4 g/dL | gamma-GTP (9 h): 1.8 IU/L | TERMINAL_BW (24 h): 205.7 g | APTT (24 h): 16.4 s | Bas (24 h): 0% | Eos (24 h): 1% | Fbg (24 h): 207 mg/dL | Hb (24 h): 13.6 g/dL | Ht (24 h): 40.4% | Lym (24 h): 82.6% | MCH (24 h): 21.5 pg | MCHC (24 h): 33.6% | MCV (24 h): 63.9 fL | Mono (24 h): 9% | Neu (24 h): 7.4% | PT (24 h): 11.9 s | Plat (24 h): 111.5 x10_4/uL | RBC (24 h): 634 x10_4/ul | Ret (24 h): 6.1% | WBC (24 h): 56.3 x10_2/uL | KIDNEY_L (24 h): 1 g | KIDNEY_R (24 h): 1 g | KIDNEY_TOTAL (24 h): 1.9 g | LIVER (24 h): 8.8 g | ALP (24 h): 979.6 IU/L | ALT (24 h): 32 IU/L | AST (24 h): 66.6 IU/L | CRE (24 h): 0.5 mg/dL | Ca (24 h): 10.9 mg/dL | Cl (24 h): 104.8 meq/L | DBIL (24 h): 0.01 mg/dL | GLC (24 h): 182.8 mg/dL | IP (24 h): 9.2 mg/dL | K (24 h): 5 meq/L | LDH (24 h): 103.4 IU/L | Na (24 h): 140.2 meq/L | PL (24 h): 136.6 mg/dL | RALB (24 h): 3.5 g/dL | TBIL (24 h): 0.3 mg/dL | TC (24 h): 81 mg/dL | TG (24 h): 47.6 mg/dL | TP (24 h): 5.6 g/dL | gamma-GTP (24 h): 1.6 IU/L
